Reference: patent US4537717A
In brackets after ≈: the same amount, converted by molar mass. Several values for one entry are separate records, joined by “and”; a condition that tells them apart may be missing. Identical values can stand only once.

Tests used:
[1] = tested on: Staphylococcus aureus ATCC 6738P; assay: agar-plate disc-diffusion test; format: cell-based; details: suspended in water at 1 mg/ml; 7 mm disc; 24-48 hours at 25-37° C.
Staphylococcus aureus = assay: in vivo activity against experimental bacterial infection (ED50); details: mice; two doses subcutaneously; dose protecting fifty percent of test animals
Streptococcus pyogenes = assay: as above; details: mice, dose protecting fifty percent of test animals; for ED50 Streptococcus pyogenes Oral: two doses orally; for ED50 Streptococcus pyogenes Subcutaneous: two doses subcutaneously
toxicity test (LD50) = details: mouse, in vivo, iv, mice; administered intravenously
[2] = tested on: Micrococcus luteus ATCC 9341; assay: agar-plate disc-diffusion test; format: cell-based; details: suspended in water at 1 mg/ml; 7 mm disc; 24-48 hours at 25-37° C.
[3] = tested on: Bacillus subtilis ATCC 6633; assay: agar-plate disc-diffusion test; details: 7 mm disc, 24-48 hours at 25-37° C.; for Size of Zone of Inhibition (mm) B. subtilis ATCC 6633, grown on minimal nutrient agar: 1 mg/ml; for Size of Zone of Inhibition (mm) Bacillus subtilis ATCC 6633: suspended in water at 1 mg/ml
Protocol: ^a Compounds were suspended in water at a concentration of 1 mg/ml; a
7 mm disc was dipped into the suspension and then placed on the agar
surface; incubation: 24-48 hours at 25-37° C.
^b Grown on minimal nutrient agar

[4] = tested on: Streptococcus pneumoniae Park I; format: cell-based; details: agar dilution; 2, 5, 17, 22 median of three tests; paired values two experiments
[5] = tested on: Streptococcus pneumoniae Group D X66; format: cell-based; details: agar dilution; 2, 5, 17, 22 median of three tests; paired values two experiments
[6] = tested on: Staphylococcus epidermidis EPI2; format: cell-based; details: agar dilution; 2, 5, 17, 22 median of three tests; paired values two experiments
[7] = tested on: Staphylococcus aureus X400; format: cell-based; details: methicillin-resistant strain; agar dilution; 2, 5, 17, 22 median of three tests; paired values two experiments
[8] = tested on: Staphylococcus aureus X1.1; format: cell-based; details: agar dilution; 2, 5, 17, 22 median of three tests; paired values two experiments
Streptococcus Group 9960 = format: cell-based, Streptococcus pneumoniae; details: agar dilution; 2, 5, 17, 22 median of three tests; paired values two experiments
[9] = tested on: Staphylococcus aureus V41; format: cell-based; details: penicillin-resistant strain; agar dilution; 2, 5, 17, 22 median of three tests; paired values two experiments
[10] = tested on: Staphylococcus epidermidis EPI1; format: cell-based; details: agar dilution; 2, 5, 17, 22 median of three tests; paired values two experiments
[11] = tested on: Streptococcus pyogenes C203; format: cell-based; details: agar dilution; 2, 5, 17, 22 median of three tests; paired values two experiments

Molecule	Size of Zone of Inhibition (mm) Staphylococcus aureus ATCC 6738P [1] [mm]	ED50 Staphylococcus aureus Subcutaneous (Staphylococcus aureus) [mg/kg × 2]	ED50 Streptococcus pyogenes Oral (Streptococcus pyogenes)	LD50 (toxicity test (LD50)) [mg/kg]	Size of Zone of Inhibition (mm) Micrococcus luteus ATCC 9341 [2] [mm]	Size of Zone of Inhibition (mm) B. subtilis ATCC 6633, grown on minimal nutrient agar [3] [mm]	Size of Zone of Inhibition (mm) Bacillus subtilis ATCC 6633 [3]	MIC Streptococcus pneumoniae Park I [4] [µg/mL]	MIC Streptococcus pneumoniae Group D X66 [5] [µg/mL]	MIC Staphylococcus epidermidis EPI2 [6] [µg/mL]	MIC Staphylococcus aureus X400 [7] [µg/mL]	MIC Staphylococcus aureus X1.1 [8] [µg/mL]	MIC Streptococcus pneumoniae Group 9960 (Streptococcus Group 9960) [µg/mL]	MIC Staphylococcus aureus V41 [9] [µg/mL]	MIC Staphylococcus epidermidis EPI1 [10] [µg/mL]	MIC Streptococcus pyogenes C203 [11]	ED50 Streptococcus pyogenes Subcutaneous (Streptococcus pyogenes) [mg/kg × 2]
CCC(C)CCCCCCC(=O)N[C@@H](Cc1c[nH]c2ccccc12)C(=O)N[C@@H](CC(N)=O)C(=O)N[C@@H](CC(=O)O)C(=O)N[C@@H]1C(=O)NCC(=O)N[C@@H](CCCNC(C)=O)C(=O)N[C@@H](CC(=O)O)C(=O)N[C@H](C)C(=O)N[C@@H](CC(=O)O)C(=O)NCC(=O)N[C@H](CO)C(=O)N[C@@H]([C@H](C)CC(=O)O)C(=O)N[C@@H](CC(=O)c2ccccc2N)C(=O)O[C@@H]1C (some centres unmarked) [Compound 14]	21	1.3	163 mg/kg × 2 and > 200 mg/kg × 2	> 600	20	25	18 mm	–	–	–	–	–	–	–	–	–	–
CCCCCCCCCCCCN[C@@H](Cc1c[nH]c2ccccc12)C(=O)N[C@@H](CC(N)=O)C(=O)N[C@@H](CC(=O)O)C(=O)N[C@@H]1C(=O)NCC(=O)N[C@@H](CCCN)C(=O)N[C@@H](CC(=O)O)C(=O)N[C@H](C)C(=O)N[C@@H](CC(=O)O)C(=O)NCC(=O)N[C@H](CO)C(=O)N[C@@H]([C@H](C)CC(=O)O)C(=O)N[C@@H](CC(=O)c2ccccc2N)C(=O)O[C@@H]1C [Compound 22, NTrp -(n-dodecyl)-A-21978C nucleus]	–	1.25	> 200 mg/kg × 2	> 300	–	–	–	1 (≈ 0.612 µM)	4 (≈ 2.45 µM)	1 (≈ 0.612 µM)	1 (≈ 0.612 µM)	0.5 (≈ 0.306 µM)	1 (≈ 0.612 µM)	1 (≈ 0.612 µM)	1 (≈ 0.612 µM)	0.5 µg/mL (≈ 0.306 µM)	–
CCCCCCCC(=O)NCCC[C@@H]1NC(=O)CNC(=O)[C@@H](NC(=O)[C@H](CC(=O)O)NC(=O)[C@H](CC(N)=O)NC(=O)[C@H](Cc2c[nH]c3ccccc23)NC(=O)CCCCCCC)[C@@H](C)OC(=O)[C@H](CC(=O)c2ccccc2N)NC(=O)[C@H]([C@H](C)CC(=O)O)NC(=O)[C@@H](CO)NC(=O)CNC(=O)[C@H](CC(=O)O)NC(=O)[C@@H](C)NC(=O)[C@H](CC(=O)O)NC1=O [Compound 16]	11	–	–	> 600	10	17	tr	4 (≈ 2.33 µM)	> 128	16 (≈ 9.31 µM)	8 (≈ 4.65 µM)	8 (≈ 4.65 µM)	64 (≈ 37.2 µM)	16 (≈ 9.31 µM)	16 (≈ 9.31 µM)	4 µg/mL (≈ 2.33 µM)	–
NTrp -(n-Decanoyl)-NKyn -(n-decanoyl)-A-21978C [Compound 21]	–	–	–	–	–	–	–	0.5	> 128	2	32	1	128	4	2	0.125 µg/mL	–
CCCCCCCCCCCCCC(=O)N[C@@H](Cc1c[nH]c2ccccc12)C(=O)N[C@@H](CC(N)=O)C(=O)N[C@@H](CC(=O)O)C(=O)N[C@@H]1C(=O)NCC(=O)N[C@@H](CCCN)C(=O)N[C@@H](CC(=O)O)C(=O)N[C@H](C)C(=O)N[C@@H](CC(=O)O)C(=O)NCC(=O)N[C@H](CO)C(=O)N[C@@H]([C@H](C)CC(=O)O)C(=O)N[C@@H](CC(=O)c2ccccc2N)C(=O)O[C@@H]1C [Compound 8]	22	–	< 50 mg/kg × 2	62.5	21	28	21 mm	–	–	2 (≈ 1.19 µM)	2 (≈ 1.19 µM)	–	–	–	1 (≈ 0.596 µM)	–	–
NTrp -(n-dodecyl)-NOrn -(n-dodecyl)-A-21978C nucleus [Compound 23]	–	–	–	–	–	–	–	8	32	8	16	8	8	8	8	4 µg/mL	–
CCCCCCCCCCCC(=O)N[C@@H](Cc1c[nH]c2ccccc12)C(=O)N[C@@H](CC(N)=O)C(=O)N[C@@H](CC(=O)O)C(=O)N[C@@H]1C(=O)NCC(=O)N[C@@H](CCCN)C(=O)N[C@@H](CC(=O)O)C(=O)N[C@H](C)C(=O)N[C@@H](CC(=O)O)C(=O)NCC(=O)N[C@H](CO)C(=O)N[C@@H]([C@H](C)CC(=O)O)C(=O)N[C@@H](CC(=O)c2ccccc2N)C(=O)O[C@@H]1C [Compound 6]	25	0.44	69 mg/kg × 2	144	19	32	20 mm	0.25 (≈ 0.152 µM)	2 (≈ 1.21 µM)	1 (≈ 0.607 µM)	–	–	0.5 (≈ 0.303 µM)	–	1 (≈ 0.607 µM)	0.125 µg/mL and 0.25 µg/mL	0.05
CCCCCCCCCC(=O)N[C@@H](Cc1c[nH]c2ccccc12)C(=O)N[C@H](CC(N)=O)C(=O)N[C@@H](CC(=O)O)C(=O)N[C@@H]1C(=O)NCC(=O)N[C@@H](CCCN)C(=O)N[C@@H](CC(=O)O)C(=O)N[C@H](C)C(=O)N[C@@H](CC(=O)O)C(=O)NCC(=O)N[C@H](CO)C(=O)N[C@@H]([C@H](C)CC(=O)O)C(=O)N[C@@H](CC(=O)c2ccccc2N)C(=O)O[C@@H]1C [Compound 4]	–	–	–	> 300	–	–	–	–	–	–	–	–	–	–	–	–	–
CCC(C)CCCCCCC(=O)N[C@@H](Cc1c[nH]c2ccccc12)C(=O)N[C@@H](CC(N)=O)C(=O)N[C@@H](CC(=O)O)C(=O)N[C@@H]1C(=O)NCC(=O)N[C@@H](CCCNC(=O)CCC(=O)O)C(=O)N[C@@H](CC(=O)O)C(=O)N[C@H](C)C(=O)N[C@@H](CC(=O)O)C(=O)NCC(=O)N[C@H](CO)C(=O)N[C@@H]([C@H](C)CC(=O)O)C(=O)N[C@@H](CC(=O)c2ccccc2N)C(=O)O[C@@H]1C (some centres unmarked) [Compound 15]	21	6.27	> 200 mg/kg × 2	450	19	25	18 mm	–	–	–	–	–	–	–	–	–	1.4
CCCCCCCC(=O)N[C@@H](Cc1c[nH]c2ccccc12)C(=O)N[C@@H](CC(N)=O)C(=O)N[C@@H](CC(=O)O)C(=O)N[C@@H]1C(=O)NCC(=O)N[C@@H](CCCN)C(=O)N[C@@H](CC(=O)O)C(=O)N[C@H](C)C(=O)N[C@@H](CC(=O)O)C(=O)NCC(=O)N[C@H](CO)C(=O)N[C@@H]([C@H](C)CC(=O)O)C(=O)N[C@@H](CC(=O)c2ccccc2N)C(=O)O[C@@H]1C [Compound 2]	23	–	> 200 mg/kg × 2	> 600	23	20	18 mm	8 (≈ 5.02 µM)	64 (≈ 40.2 µM)	4 (≈ 2.51 µM)	8 (≈ 5.02 µM)	4 (≈ 2.51 µM)	16 (≈ 10 µM)	4 (≈ 2.51 µM)	8 (≈ 5.02 µM)	1 µg/mL (≈ 0.628 µM)	–
